The text below walks through data of PubChem BioAssay (NCI).

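Step 1: Grow cells in 96-well plates. Step 2: Expose to compound for 48 hours at 5 concentrations. Step 3: Interpolate endpoints linearly; if unreached, use highest concentration. The concentration for full growth arrest is given as TGI.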

The first assay deals with KM20L2 colon. The assay can be described thus: NCI tumour cell line growth inhibition, 48 h.
On to `CC[C@@]12N=C(N(C)C)C[C@]1(O)ON=C2C`, for which the TGI is more than 100 µM.
Still for that read-out and setting: in the case of `CCOC(=O)NC(=O)c1cn(CCOC(=O)NCCCCCCNC(=O)OCCn2cc(C(=O)NC(=O)OCC)c(=O)[nH]c2=O)c(=O)[nH]c1=O` it was more than 100 µM.
Same read-out and setting: the same measure for `COC1[C@@H](OC(C)=O)[C@@H](NC(=O)C(Cl)(Cl)Cl)C(I)[C@@H](N2C(=O)c3ccccc3C2=O)[C@H]1OC` (some centres undefined): more than 100 µM; for `O=C(CSc1nnc(-c2ccc(N=Cc3ccc(Cl)cc3)cc2)o1)Nc1ccc(Cl)cc1`: more than 100 µM.

Another assay relates to SNB-78 CNS. The assay can be described thus: NCI tumour cell line growth inhibition, 48 h.
The compound `CCOC(=O)NC(=O)c1cn(CCOC(=O)NCCCCCCNC(=O)OCCn2cc(C(=O)NC(=O)OCC)c(=O)[nH]c2=O)c(=O)[nH]c1=O` gave a TGI of more than 100 µM.
The same measure, in the same setting: in the case of `COC1[C@@H](OC(C)=O)[C@@H](NC(=O)C(Cl)(Cl)Cl)C(I)[C@@H](N2C(=O)c3ccccc3C2=O)[C@H]1OC` (some centres undefined) it was more than 100 µM; in that of `O=S(Cc1ccccn1)c1nc2ccccc2nc1-c1ccccc1` (centres undefined), 94 µM; in that of `O=C(CSc1nnc(-c2ccc(N=Cc3ccc(Cl)cc3)cc2)o1)Nc1ccc(Cl)cc1`, more than 100 µM.

A further assay deals with 786-0 renal. The assay can be described thus: NCI tumour cell line growth inhibition, 48 h.
As for `CC[C@@]12N=C(N(C)C)C[C@]1(O)ON=C2C`, the TGI is more than 100 µM.
Same read-out and setting: in the case of `CCOC(=O)NC(=O)c1cn(CCOC(=O)NCCCCCCNC(=O)OCCn2cc(C(=O)NC(=O)OCC)c(=O)[nH]c2=O)c(=O)[nH]c1=O` it was more than 100 µM.
Same read-out and setting: the same measure for `COC1[C@@H](OC(C)=O)[C@@H](NC(=O)C(Cl)(Cl)Cl)C(I)[C@@H](N2C(=O)c3ccccc3C2=O)[C@H]1OC` (some centres undefined): more than 100 µM; for `O=S(Cc1ccccn1)c1nc2ccccc2nc1-c1ccccc1` (centres undefined): more than 100 µM; for `O=C(CSc1nnc(-c2ccc(N=Cc3ccc(Cl)cc3)cc2)o1)Nc1ccc(Cl)cc1`: more than 100 µM.

Another assay concerns SW-620 colon. In words: NCI tumour cell line growth inhibition, 48 h.
On to `CC[C@@]12N=C(N(C)C)C[C@]1(O)ON=C2C`, for which the TGI is more than 100 µM.
Same read-out and setting: in the case of `CCOC(=O)NC(=O)c1cn(CCOC(=O)NCCCCCCNC(=O)OCCn2cc(C(=O)NC(=O)OCC)c(=O)[nH]c2=O)c(=O)[nH]c1=O` it was more than 100 µM; in that of `COC1[C@@H](OC(C)=O)[C@@H](NC(=O)C(Cl)(Cl)Cl)C(I)[C@@H](N2C(=O)c3ccccc3C2=O)[C@H]1OC` (some centres undefined), more than 100 µM.
On the same count and under the same terms, the same measure for `O=C(CSc1nnc(-c2ccc(N=Cc3ccc(Cl)cc3)cc2)o1)Nc1ccc(Cl)cc1`: more than 100 µM.

The test system of the next assay is DMS 273 small cell lung. In words: NCI tumour cell line growth inhibition, 48 h.
The compound `CC[C@@]12N=C(N(C)C)C[C@]1(O)ON=C2C` gave a TGI of more than 100 µM.
Still for that read-out and setting: the same measure for `CCOC(=O)NC(=O)c1cn(CCOC(=O)NCCCCCCNC(=O)OCCn2cc(C(=O)NC(=O)OCC)c(=O)[nH]c2=O)c(=O)[nH]c1=O`: more than 100 µM; for `COC1[C@@H](OC(C)=O)[C@@H](NC(=O)C(Cl)(Cl)Cl)C(I)[C@@H](N2C(=O)c3ccccc3C2=O)[C@H]1OC` (some centres undefined): more than 100 µM; for `O=S(Cc1ccccn1)c1nc2ccccc2nc1-c1ccccc1` (centres undefined): more than 100 µM.
Still for that read-out and setting: in the case of `O=C(CSc1nnc(-c2ccc(N=Cc3ccc(Cl)cc3)cc2)o1)Nc1ccc(Cl)cc1` it was more than 100 µM.

Another assay has as its system MOLT-4 leukemia. The assay can be described thus: NCI tumour cell line growth inhibition, 48 h.
`CC[C@@]12N=C(N(C)C)C[C@]1(O)ON=C2C` had a TGI of more than 100 µM.
On the same count and under the same terms, in the case of `CCOC(=O)NC(=O)c1cn(CCOC(=O)NCCCCCCNC(=O)OCCn2cc(C(=O)NC(=O)OCC)c(=O)[nH]c2=O)c(=O)[nH]c1=O` it was more than 100 µM; in that of `COC1[C@@H](OC(C)=O)[C@@H](NC(=O)C(Cl)(Cl)Cl)C(I)[C@@H](N2C(=O)c3ccccc3C2=O)[C@H]1OC` (some centres undefined), more than 100 µM; in that of `O=S(Cc1ccccn1)c1nc2ccccc2nc1-c1ccccc1` (centres undefined), more than 100 µM.
The same measure, in the same setting: in the case of `O=C(CSc1nnc(-c2ccc(N=Cc3ccc(Cl)cc3)cc2)o1)Nc1ccc(Cl)cc1` it was more than 100 µM.

A further assay has as its system M14 melanoma. The assay can be described thus: NCI tumour cell line growth inhibition, 48 h.
In the case of `CC[C@@]12N=C(N(C)C)C[C@]1(O)ON=C2C`, the TGI was more than 100 µM.
The compound `CCOC(=O)NC(=O)c1cn(CCOC(=O)NCCCCCCNC(=O)OCCn2cc(C(=O)NC(=O)OCC)c(=O)[nH]c2=O)c(=O)[nH]c1=O` showed a TGI of more than 100 µM.
Still for that read-out and setting: in the case of `COC1[C@@H](OC(C)=O)[C@@H](NC(=O)C(Cl)(Cl)Cl)C(I)[C@@H](N2C(=O)c3ccccc3C2=O)[C@H]1OC` (some centres undefined) it was more than 100 µM; in that of `O=S(Cc1ccccn1)c1nc2ccccc2nc1-c1ccccc1` (centres undefined), more than 100 µM; in that of `O=C(CSc1nnc(-c2ccc(N=Cc3ccc(Cl)cc3)cc2)o1)Nc1ccc(Cl)cc1`, more than 100 µM.

The next assay concerns HCT-15 colon. The assay can be described thus: NCI tumour cell line growth inhibition, 48 h.
In the case of `CC[C@@]12N=C(N(C)C)C[C@]1(O)ON=C2C`, the TGI was more than 100 µM.
On the same count and under the same terms, in the case of `CCOC(=O)NC(=O)c1cn(CCOC(=O)NCCCCCCNC(=O)OCCn2cc(C(=O)NC(=O)OCC)c(=O)[nH]c2=O)c(=O)[nH]c1=O` it was more than 100 µM; in that of `COC1[C@@H](OC(C)=O)[C@@H](NC(=O)C(Cl)(Cl)Cl)C(I)[C@@H](N2C(=O)c3ccccc3C2=O)[C@H]1OC` (some centres undefined), more than 100 µM; in that of `O=C(CSc1nnc(-c2ccc(N=Cc3ccc(Cl)cc3)cc2)o1)Nc1ccc(Cl)cc1`, more than 100 µM.

A further assay deals with NCI-H460 lung. The assay can be described thus: NCI tumour cell line growth inhibition, 48 h.
For the compound `CC[C@@]12N=C(N(C)C)C[C@]1(O)ON=C2C`, the TGI was more than 100 µM.
Same read-out and setting: the same measure for `CCOC(=O)NC(=O)c1cn(CCOC(=O)NCCCCCCNC(=O)OCCn2cc(C(=O)NC(=O)OCC)c(=O)[nH]c2=O)c(=O)[nH]c1=O`: more than 100 µM.
The compound `COC1[C@@H](OC(C)=O)[C@@H](NC(=O)C(Cl)(Cl)Cl)C(I)[C@@H](N2C(=O)c3ccccc3C2=O)[C@H]1OC` (some centres undefined) came in with a TGI of more than 100 µM.
The same measure, in the same setting: in the case of `O=C(CSc1nnc(-c2ccc(N=Cc3ccc(Cl)cc3)cc2)o1)Nc1ccc(Cl)cc1` it was more than 100 µM.

Another assay concerns SNB-75 CNS. In words: NCI tumour cell line growth inhibition, 48 h.
`CC[C@@]12N=C(N(C)C)C[C@]1(O)ON=C2C` had a TGI of more than 100 µM.
On the same count and under the same terms, in the case of `CCOC(=O)NC(=O)c1cn(CCOC(=O)NCCCCCCNC(=O)OCCn2cc(C(=O)NC(=O)OCC)c(=O)[nH]c2=O)c(=O)[nH]c1=O` it was more than 100 µM.
Compound `COC1[C@@H](OC(C)=O)[C@@H](NC(=O)C(Cl)(Cl)Cl)C(I)[C@@H](N2C(=O)c3ccccc3C2=O)[C@H]1OC` (some centres undefined) had a TGI of more than 100 µM.
Same read-out and setting: in the case of `O=S(Cc1ccccn1)c1nc2ccccc2nc1-c1ccccc1` (centres undefined) it was 79.6 µM.
Take `O=C(CSc1nnc(-c2ccc(N=Cc3ccc(Cl)cc3)cc2)o1)Nc1ccc(Cl)cc1`: the TGI was more than 100 µM.

For the next assay, the system named is SK-MEL-5 melanoma. The assay can be described thus: NCI tumour cell line growth inhibition, 48 h.
As to `CC[C@@]12N=C(N(C)C)C[C@]1(O)ON=C2C`, the TGI is more than 100 µM.
For the compound `CCOC(=O)NC(=O)c1cn(CCOC(=O)NCCCCCCNC(=O)OCCn2cc(C(=O)NC(=O)OCC)c(=O)[nH]c2=O)c(=O)[nH]c1=O`, the TGI was more than 100 µM.
Still for that read-out and setting: the same measure for `COC1[C@@H](OC(C)=O)[C@@H](NC(=O)C(Cl)(Cl)Cl)C(I)[C@@H](N2C(=O)c3ccccc3C2=O)[C@H]1OC` (some centres undefined): more than 100 µM; for `O=C(CSc1nnc(-c2ccc(N=Cc3ccc(Cl)cc3)cc2)o1)Nc1ccc(Cl)cc1`: more than 100 µM.

The subject of a further assay is KM12 colon. The assay can be described thus: NCI tumour cell line growth inhibition, 48 h.
Turning to `CC[C@@]12N=C(N(C)C)C[C@]1(O)ON=C2C`, the TGI is more than 100 µM.
On to `CCOC(=O)NC(=O)c1cn(CCOC(=O)NCCCCCCNC(=O)OCCn2cc(C(=O)NC(=O)OCC)c(=O)[nH]c2=O)c(=O)[nH]c1=O`, for which the TGI is more than 100 µM.
The same measure, in the same setting: in the case of `COC1[C@@H](OC(C)=O)[C@@H](NC(=O)C(Cl)(Cl)Cl)C(I)[C@@H](N2C(=O)c3ccccc3C2=O)[C@H]1OC` (some centres undefined) it was more than 100 µM; in that of `O=C(CSc1nnc(-c2ccc(N=Cc3ccc(Cl)cc3)cc2)o1)Nc1ccc(Cl)cc1`, more than 100 µM.

For another assay, the system named is SF-268 CNS. The assay can be described thus: NCI tumour cell line growth inhibition, 48 h.
`CC[C@@]12N=C(N(C)C)C[C@]1(O)ON=C2C`: the TGI is more than 100 µM.
Still for that read-out and setting: in the case of `CCOC(=O)NC(=O)c1cn(CCOC(=O)NCCCCCCNC(=O)OCCn2cc(C(=O)NC(=O)OCC)c(=O)[nH]c2=O)c(=O)[nH]c1=O` it was more than 100 µM; in that of `COC1[C@@H](OC(C)=O)[C@@H](NC(=O)C(Cl)(Cl)Cl)C(I)[C@@H](N2C(=O)c3ccccc3C2=O)[C@H]1OC` (some centres undefined), more than 100 µM.
The same measure, in the same setting: the same measure for `O=S(Cc1ccccn1)c1nc2ccccc2nc1-c1ccccc1` (centres undefined): more than 100 µM; for `O=C(CSc1nnc(-c2ccc(N=Cc3ccc(Cl)cc3)cc2)o1)Nc1ccc(Cl)cc1`: more than 100 µM.

In a further assay the test system is NCI-H226 lung. In words: NCI tumour cell line growth inhibition, 48 h.
`CC[C@@]12N=C(N(C)C)C[C@]1(O)ON=C2C` returned a TGI of more than 100 µM.
